Consider two compounds from patent publication US4728641A, “Ganglioside derivatives” (Burroughs Wellcome Co., priority 1983, dated 1988).

Assay [1] has as its system Candida albicans (strain CN 7996). Nature of the assay: In vivo activity against Candida albicans infection in mice. Set-up: species or system Swiss male albino mice (Charles River CD1). As to conditions: cyclophosphamide 50 mg/kg i.v. 96 hours before infection, GM1 P 10 mg/kg s.c. 96 and 24 hours before infection, or both. The method, then: 53 Swiss male albino mice (Charles River CD1) weighing 23±1 g were randomly divided into […] groups of 10, 14, 14 and 15 animals each (groups 1 to 4 respectively). Group 1 animals were injected with saline as a control group; Group 2 were injected with cyclophosphamide 50 mg/kg (0.2 ml/mouse) intravenously 96 hours before infection; Group 3 with cyclophosphamide 50 mg/kg (0.2 ml/mouse) intravenously 96 hours before infection and with GM1 P 10 mg/kg (0.25 ml/10 g) subcutaneously at 96 and 24 hours before infection; and Group 4 with GM1 P 10 mg/kg (0.25 ml/10 g) subcutaneously 96 and 24 hours before infection. The mice were then injected intravenously with 0.225 ml/mouse of an 18 hour culture of Sabouraud glucose broth containing 1.204×10^7 Candida albicans cells/ml (strain CN 7996).

Assay [2] concerns Plasmodium berghei. The assay can be described thus: In vivo activity against Plasmodium berghei protozoa in mice. Set-up: species or system Swiss male albino mice (Charles River CD1). The settings on record: GM1 P (Example 1) 5 mg/kg s.c. 24 and 2 hours before infection, pyrimethamine 1 mg/kg s.c. days 0, 1 and 2, or both. The method, then: 40 Swiss male albino mice (Charles River CD1) weighing 22±1 g were randomly divided into groups of 10 and injected intraperitoneally with 0.1 ml/10 g of citrated blood of 6-day parasitised mice which had been diluted 1:1000 (v/v) with saline to obtain 1.58×10^6 P. berghei I.S.S./ml. The control group (1) were injected with saline, group 2 with ganglioside GM1 P prepared by the method of Example 1 (5 mg/kg s.c. in saline), group 3 with the known anti-protozoal agent pyrimethamine (1 mg/kg s.c. in CMC 0.25% in water, w/v), and group 4 with both GM1 P and pyrimethamine at the doses stated above. The dose volume was 0.25 ml/10 g. The GM1 P was administered 24 hours and 2 hours before infection (Day 0) and the pyrimethamine on days 0,1 and 2.

Take `O=P1(N(CCCl)CCCl)NCCCO1` (stereo not shown) [cyclophosphamide]: the “Number alive at Day 23” value in assay [1] (Day 23) came out at 0. In assay [1], this compound returned a Mean survival time of 1.21 days.

Regarding `CCc1nc(N)nc(N)c1-c1ccc(Cl)cc1` [pyrimethamine], in assay [2] (Day 9), the “Mortality (%) Day 9” value amounted to 50%. For the same compound, the “Mortality (%) Day 13” value in assay [2] (Day 13) is reported as 90%.
